{"source": "patent US8648203B2", "about": "(priority 2005, dated 2014)", "origin": "cited, not measured here", "system": "benzimidazole and/or dicarboximide resistant strains of B. cinerea"}
{"smiles": "O=[N+]([O-])c1cc(C(F)(F)F)c(Cl)c([N+](=O)[O-])c1Nc1ncc(C(F)(F)F)cc1Cl", "note": "[fluazinam, 3-chloro-N-(3-chloro-5-trifluoromethyl-2-pyridyl)-α,α,α-trifluoro-2,6-dinitro-p-toluidine]", "values": [{"measurement": "activity against resistant strains of B. cinerea", "value": "good activity"}]}
